Experiment: Properties of the granules / powder mix (angle of repose, bulk density, tap density, compression index)
Format: physicochemical
Conditions: bulk drug powder
Protocol: With reference to Example 7, 5 batches of samples 7-1, 7-2, 7-3, 7-4, and 7-5 were prepared by a capsule filling process after granules were prepared by dry granulation at different press roll pressures (a GL5-50 dry granulation machine with a 2.0 mm primary granulation sieve and a 1.0 mm secondary granulation sieve was used), and properties of the granules (including angle of repose, bulk density, and tap density), content uniformity of finished products, and other indexes were investigated separately. […] According to requirements of pharmacopoeia, the release rate of the samples is equal to or greater than 80% (Q) of the labelled amount in a medium with a pH of 1.2 within 30 minutes. Thus, the release rate of the various batches of samples (7-1, 7-2, 7-3, 7-4, and 7-5) was investigated in a medium with a pH of 1.2.
The palbociclib isethionate has poor fluidity and is a loose powder. […] Especially when capsules are filled in commercial batches in a large scale, the problem of difficulty in automatic filling at high speed will be caused due to poor fluidity of the powder. Moreover, the filled capsules have great differences in loading capacity, so that the content uniformity and the product quality are unqualified. […]

Fluidity of the raw material: poor fluidity
SMILES: CC(=O)c1c(C)c2cnc(Nc3ccc(N4CCNCC4)cn3)nc2n(C2CCCC2)c1=O.O=S(=O)(O)CCO [palbociclib isethionate]
